The supplement of paper PMC10331698
± gives the standard deviation of the averaged measurements.

Columns and labels:
Experiment in all cases: level (log10 ratio to DMSO vehicle control); higher = higher biomarker level / cell amount than vehicle control
[1] = compound: C=C(C)C(=O)OCCC(F)(F)C(F)(F)C(F)(F)C(F)(F)C(F)(C(F)(F)F)C(F)(F)F [(Perfluoro-5-methylhexyl)ethyl 2-methylprop-2-enoate]; conditions: in DMSO
Method: (§1)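 BioMAP Diversity Plus panel of 12 human primary cell co-culture systems (3C, 4H, LPS, SAg, BT, BF4T, BE3C, CASM3C, HDF3CGF, KF3CT, MyoF, Mphg). Compounds were added 1 h before stimulation and left for 24 h (MyoF 48 h; BT 72 h for soluble read-outs or 6 d for IgG). Biomarkers were read by ELISA, cytotoxicity by SRB, PBMC viability and proliferation by Alamar Blue. Each well value was divided by the mean of 8 DMSO control wells on the same plate and log10 transformed; duplicate blinded samples were tested at 4 concentrations.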

[2] = compound: FC(F)(F)C(F)(C(F)(F)F)C(F)(F)C(F)(F)CC1CO1 [3-(Perfluoro-3-methylbutyl)-1,2-propenoxide]; conditions: in DMSO
Method: as §1

[3] = compound: FC(F)(F)C(F)(F)C(F)(F)C(F)(F)C(F)(F)CCI [1-Iodo-1H,1H,2H,2H-perfluoroheptane]; conditions: in DMSO
Method: as §1

Heptafluorobutyramide = compound: NC(=O)C(F)(F)C(F)(F)C(F)(F)F [Heptafluorobutyramide]; conditions: in DMSO
Method: as §1

Perfluoropentanoic acid = compound: O=C(O)C(F)(F)C(F)(F)C(F)(F)C(F)(F)F [Perfluoropentanoic acid]; conditions: in DMSO
Method: as §1

Perfluorobutanoic acid = compound: O=C(O)C(F)(F)C(F)(F)C(F)(F)F [Perfluorobutanoic acid]; conditions: in DMSO
Method: as §1

[4] = compound: O=C(O)C(F)(F)C(F)(F)OC(F)(F)F [Perfluoro-3-methoxypropanoic acid]; conditions: in DMSO
Method: as §1

[5] = compound: OCCCC(F)(F)C(F)(F)C(F)(F)C(F)(F)C(F)(F)C(F)(F)C(F)(F)F [7:3 Fluorotelomer alcohol]; conditions: 6700 nM; in DMSO
Method: as §1

Test System: 4H:SRB
- level (log10) ([1]; 6700 nM): 0.002 ± 0.013
- level (log10) ([1]; 20000 nM): -0.0025 ± 0.019
- level (log10) ([2]; 6700 nM): 0 ± 0.025
- level (log10) ([2]; 20000 nM): -0.019 ± 0.0071
- level (log10) ([3]; 6700 nM): -0.004 ± 0.0057
- level (log10) ([3]; 20000 nM): -0.01 ± 0.0057
- level (log10) ([3]; 60000 nM): -0.008 ± 0.013
- level (log10) (Heptafluorobutyramide; 6700 nM): -0.0275 ± 0.026
- level (log10) (Heptafluorobutyramide; 20000 nM): -0.0165 ± 0.0035
- level (log10) (Heptafluorobutyramide; 60000 nM): -0.006 ± 0.018
- level (log10) (Perfluoropentanoic acid; 6700 nM): -0.0125 ± 0.00071
- level (log10) (Perfluoropentanoic acid; 20000 nM): -0.0065 ± 0.016
- level (log10) (Perfluoropentanoic acid; 60000 nM): -0.0025 ± 0.021
- level (log10) (Perfluorobutanoic acid; 6700 nM): -0.02 ± 0.044
- level (log10) (Perfluorobutanoic acid; 20000 nM): -0.0115 ± 0.0035
- level (log10) (Perfluorobutanoic acid; 60000 nM): -0.007 ± 0.024
- level (log10) ([4]; 6700 nM): -0.013 ± 0.0071
- level (log10) ([4]; 20000 nM): -0.004 ± 0.0071
- level (log10) ([4]; 60000 nM): 0.0015 ± 0.033
- level (log10) [5]: -0.0015 ± 0.0064

Test System: 3C:CXCL9/MIG
- level (log10) ([1]; 6700 nM): -0.001 ± 0.011
- level (log10) ([1]; 20000 nM): 0.0045 ± 0.0035
- level (log10) ([2]; 6700 nM): -0.011 ± 0.0042
- level (log10) ([2]; 20000 nM): -0.0025 ± 0.005
- level (log10) ([3]; 6700 nM): -0.0035 ± 0.005
- level (log10) ([3]; 20000 nM): -0.011 ± 0.0028
- level (log10) ([3]; 60000 nM): -0.0075 ± 0.0064
- level (log10) (Heptafluorobutyramide; 6700 nM): -0.004 ± 0.016
- level (log10) (Heptafluorobutyramide; 20000 nM): -0.0115 ± 0.0064
- level (log10) (Heptafluorobutyramide; 60000 nM): -0.0065 ± 0.0078
- level (log10) (Perfluoropentanoic acid; 6700 nM): -0.0085 ± 0.018
- level (log10) (Perfluoropentanoic acid; 20000 nM): -0.0125 ± 0.03
- level (log10) (Perfluoropentanoic acid; 60000 nM): 0.0095 ± 0.028
- level (log10) (Perfluorobutanoic acid; 6700 nM): -0.003 ± 0.0042
- level (log10) (Perfluorobutanoic acid; 20000 nM): -0.0015 ± 0.011
- level (log10) (Perfluorobutanoic acid; 60000 nM): 0.0085 ± 0.0078
- level (log10) ([4]; 6700 nM): 0.0025 ± 0.0021
- level (log10) ([4]; 20000 nM): -0.0065 ± 0.0078
- level (log10) ([4]; 60000 nM): 0.0115 ± 0.00071
- level (log10) [5]: -0.0135 ± 0.0035

Test System: BE3C:CXCL11/I-TAC
- level (log10) ([1]; 6700 nM): 0.005 ± 0.0099
- level (log10) ([1]; 20000 nM): 0.0105 ± 0.0092
- level (log10) ([2]; 6700 nM): 0 ± 0.0057
- level (log10) ([2]; 20000 nM): -0.0075 ± 0.0035
- level (log10) ([3]; 6700 nM): 0.0075 ± 0.013
- level (log10) ([3]; 20000 nM): 0.0005 ± 0.016
- level (log10) ([3]; 60000 nM): 0.0005 ± 0.018
- level (log10) (Heptafluorobutyramide; 6700 nM): -0.0035 ± 0.0064
- level (log10) (Heptafluorobutyramide; 20000 nM): 0.005 ± 0.0042
- level (log10) (Heptafluorobutyramide; 60000 nM): -0.0015 ± 0.00071
- level (log10) (Perfluoropentanoic acid; 6700 nM): -0.0175 ± 0.012
- level (log10) (Perfluoropentanoic acid; 20000 nM): -0.015 ± 0.0028
- level (log10) (Perfluoropentanoic acid; 60000 nM): -0.005 ± 0.014
- level (log10) (Perfluorobutanoic acid; 6700 nM): 0.007 ± 0.0099
- level (log10) (Perfluorobutanoic acid; 20000 nM): -0.003 ± 0.0014
- level (log10) (Perfluorobutanoic acid; 60000 nM): -0.0085 ± 0.015
- level (log10) ([4]; 6700 nM): -0.0125 ± 0.0035
- level (log10) ([4]; 20000 nM): -0.0115 ± 0.0092
- level (log10) ([4]; 60000 nM): 0.0045 ± 0.00071
- level (log10) [5]: 0.022 ± 0.017

Test System: LPS:CD106/VCAM-1
- level (log10) ([1]; 6700 nM): 0.0045 ± 0.016
- level (log10) ([1]; 20000 nM): -0.003 ± 0.035
- level (log10) ([2]; 6700 nM): -0.0085 ± 0.019
- level (log10) ([2]; 20000 nM): 0.015 ± 0.013
- level (log10) ([3]; 6700 nM): -0.0045 ± 0.00071
- level (log10) ([3]; 20000 nM): -0.008 ± 0.0014
- level (log10) ([3]; 60000 nM): -0.0165 ± 0.0064
- level (log10) (Heptafluorobutyramide; 6700 nM): 0.0005 ± 0.005
- level (log10) (Heptafluorobutyramide; 20000 nM): -0.0005 ± 0.012
- level (log10) (Heptafluorobutyramide; 60000 nM): -0.0145 ± 0.029
- level (log10) (Perfluoropentanoic acid; 6700 nM): 0.005 ± 0.013
- level (log10) (Perfluoropentanoic acid; 20000 nM): 0.004 ± 0.0057
- level (log10) (Perfluoropentanoic acid; 60000 nM): 0.0035 ± 0.023
- level (log10) (Perfluorobutanoic acid; 6700 nM): -0.0095 ± 0.0021
- level (log10) (Perfluorobutanoic acid; 20000 nM): -0.0075 ± 0.0021
- level (log10) (Perfluorobutanoic acid; 60000 nM): -0.027 ± 0.033
- level (log10) ([4]; 6700 nM): 0.0065 ± 0.013
- level (log10) ([4]; 20000 nM): -0.0065 ± 0.00071
- level (log10) ([4]; 60000 nM): -0.01 ± 0.0028
- level (log10) [5]: -0.031 ± 0.0085
